Biological target: Wee1 (Homo sapiens (Human), UniProt P30291)
Test: In vitro enzymatic inhibitory activity (33P-ATP filter-binding kinase assay, MBP substrate)
Format: biochemical
Settings: Wee-1 150 nM, MBP 20 μM
Description: The compounds of the present invention for experimental use were all self-prepared, and their chemical names and structural formulas are shown in the preparation embodiments of the respective compounds. The experimental tests were carried out in Reaction Biology Corporation, USA, and the experimental results were provided by the company. Basic reaction buffer: 20 mM hydroxyethylpiperazine ethanesulfuric acid (pH 7.5), 10 mM magnesium chloride, 1 mM EGTA, 0.02% Brij35, 0.02 mg/mL bovine serum albumin, 0.1 mM Na3VO4, 2 mM DTT, 1% DMSO Enzyme: Wee-1 concentration is 150 nM Matrix: MBP concentration is 20 μM The tested compound was formulated into a 5 mM solution with 100% DMSO, and a 10 points 3-fold gradient dilution was performed with DMSO through an automated pipetting station epMotion 5070. 1. Fresh matrix configuration reaction buffer was prepared; 2. The Wee-1 was added into the matrix solution and shaked gently; 3. DMSO solution of the compound were added into the kinase reaction mixture using an acoustic technique (Echo 550; nanoliter range) and incubated for 20 minutes at room temperature; 4. ^33P-ATP (specific activity, 10 μCi/μL) was added into the reaction mixture to stimulate the reaction; 5. Incubated for 2 hours at room temperature; 6. Kinase activity was detected by filter-binding method.

Chain of Wee1 (P30291 whole entry): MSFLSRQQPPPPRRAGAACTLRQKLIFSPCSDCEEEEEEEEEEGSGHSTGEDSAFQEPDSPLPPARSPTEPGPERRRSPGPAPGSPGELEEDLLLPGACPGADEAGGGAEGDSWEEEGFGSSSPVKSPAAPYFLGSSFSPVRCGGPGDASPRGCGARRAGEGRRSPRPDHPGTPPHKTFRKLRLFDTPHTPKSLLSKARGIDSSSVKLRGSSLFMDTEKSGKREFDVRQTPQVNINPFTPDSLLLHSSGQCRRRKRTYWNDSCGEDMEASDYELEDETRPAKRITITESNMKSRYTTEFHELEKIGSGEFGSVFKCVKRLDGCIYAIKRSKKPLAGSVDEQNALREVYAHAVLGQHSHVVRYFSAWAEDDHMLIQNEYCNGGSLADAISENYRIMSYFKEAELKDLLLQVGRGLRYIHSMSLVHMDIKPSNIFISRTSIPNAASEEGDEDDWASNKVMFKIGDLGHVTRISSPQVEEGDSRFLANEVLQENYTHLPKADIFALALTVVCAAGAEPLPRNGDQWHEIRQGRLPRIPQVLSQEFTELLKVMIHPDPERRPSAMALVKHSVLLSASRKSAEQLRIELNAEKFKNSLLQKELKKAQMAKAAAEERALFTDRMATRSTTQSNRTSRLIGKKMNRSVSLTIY

SMILES	IC50
C=CCn1c(=O)c2cnc(Nc3ccc(N4CCC5(CCN(C)CC5)CC4)cc3)nc2n1-c1ccc(Cl)cc1 [Embodiment 12, 2-allyl-1-(4-chlorophenyl)-6-((4-(9-methyl-3,9-diazaspiro[5.5]undecan-3-yl)phenyl)amino)-1H-pyrazolo[3,4-d]pyrimidin-3(2H)-one]	25.3 nM
C=CCn1c(=O)c2cnc(Nc3ccc(N4CCC5(CCN(C)CC5)CC4)cc3)nc2n1-c1cccc(C(N)=O)n1 [Embodiment 13, 6-(2-allyl-6-((4-(9-methyl-3,9-diazaspiro[5.5]undecan-3-yl)phenyl)amino)-3-oxo-2,3-dihydro-1H-pyrazolo[3,4-d]pyrimidin-1-yl)picolinamide]	42 nM
C=CCn1c(=O)c2cnc(Nc3ccc(N4CCC5(CCN(C)CC5)CC4)cc3)nc2n1-c1cccc(C(=O)NC)n1 [Embodiment 14, 6-(2-allyl-6-((4-(9-methyl-3,9-diazaspiro[5.5]undecan-3-yl)phenyl)amino)-3-oxo-2,3-dihydro-1H-pyrazolo[3,4-d]pyrimidin-1-yl)-N-methylpicolinamide]	47.8 nM
C=CCn1c(=O)c2cnc(Nc3ccc(N4CCC5(CCN(C)CC5)CC4)cc3)nc2n1-c1cccc(C(N)=O)c1 [Embodiment 16, 3-(2-allyl-6-((4-(9-methyl-3,9-diazaspiro[5.5]undecan-3-yl)phenyl)amino)-3-oxo-2,3-dihydro-1H-pyrazolo[3,4-d]pyrimidin-1-yl)benzamide]	52.8 nM
C=CCn1c(=O)c2cnc(Nc3ccc(N4CCC5(CCN(C)CC5)CC4)cc3)nc2n1-c1cccc(C(=O)NC)c1 [Embodiment 17, 3-(2-allyl-6-((4-(9-methyl-3,9-diazaspiro[5.5]undecan-3-yl)phenyl)amino)-3-oxo-2,3-dihydro-1H-pyrazolo[3,4-d]pyrimidin-1-yl)-N-methylbenzamide]	42.5 nM
CN1CCC2(CC1)CCN(c1ccc(Nc3ncc4c(=O)n(C)n(-c5ccccc5)c4n3)cc1)CC2 [Embodiment 18, 2-methyl-6-((4-(9-methyl-3,9-diazaspiro[5.5]undecane-3-yl)phenyl)amino)-1-phenyl-1H-pyrazolo[3,4-d](2H)-one]	131 nM
CCn1c(=O)c2cnc(Nc3ccc(N4CCC5(CCN(C)CC5)CC4)cc3)nc2n1-c1ccccc1 [Embodiment 19, 2-ethyl-6-((4-(9-methyl-3,9-diazaspiro[5.5]undecan-3-yl)phenyl)amino)-1-phenyl-1H-pyrazolo[3,4-d](2H)-one]	83.2 nM
CN1CCC2(CC1)CCN(c1ccc(Nc3ncc4c(=O)n(CC(F)F)n(-c5ccccc5)c4n3)cc1)CC2 [Embodiment 22, 2-(2,2-difluroethyl)-6-((4-(9-methyl-3,9-diazaspiro[5.5]undecan-3-yl)phenyl)amino)-1-phenyl-1H-pyrazolo[3,4-d](2H)-one]	239 nM
CN1CCC2(CC1)CCN(c1ccc(Nc3ncc4c(=O)n(Cc5ccccc5)n(-c5ccccc5)c4n3)cc1)CC2 [Embodiment 23, 2-benzyl-6-((4-(9-methyl-3,9-diazaspiro[5.5]undecane-3-yl)phenyl)amino)-1-phenyl-1H-pyrazolo[3,4-d](2H)-one]	79.6 nM
CCCn1c(=O)c2cnc(Nc3ccc(N4CCC5(CCN(C)CC5)CC4)cc3)nc2n1-c1cccc(C(C)(C)O)n1 [Embodiment 24, 1-(6-(2-hydroxypropan-2-yl)pyridin-2-yl)-6-((4-(9-methyl-3,9-diazaspiro[5.5]undecan-3-yl)phenyl)amino)-2-propyl-1H-pyrazolo[3,4-d]pyrimidin-3(2H)-one]	48.8 nM
C=CCn1c(=O)c2cnc(Nc3ccc(N4CCC5(CCN(C)CC5)CC4)cc3)nc2n1-c1cccc(Cl)n1 [Embodiment 25, 2-allyl-1-(6-chloropyridin-2-yl)-6-((4-(9-methyl-3,9-diazaspiro[5.5]undecan-3-yl)phenyl)amino)-1H-pyrazolo[3,4-d]pyrimidin-3(2H)-one]	20.4 nM
C=CCn1c(=O)c2cnc(Nc3ccc(N4CCC5(CCN(C)CC5)CC4)cc3)nc2n1-c1ccc(Cl)cn1 [Embodiment 26, 2-allyl-1-(5-chloropyridin-2-yl)-6-((4-(9-methyl-3,9-diazaspiro[5.5]undecan-3-yl)phenyl)amino)-1H-pyrazolo[3,4-d]pyrimidin-3(2H)-one]	14.1 nM
C=CCn1c(=O)c2cnc(Nc3ccc(N4CCC5(CCN(C)CC5)CC4)cc3)nc2n1-c1cccc(F)n1 [Embodiment 27, 2-allyl-1-(6-fluoropyridin-2-yl)-6-((4-(9-methyl-3,9-diazaspiro[5.5]undecane-3-yl)phenyl)amino)-1H-pyrazolo[3,4-d]pyrimidin-3(2H)-one]	24.9 nM
C=CCn1c(=O)c2cnc(Nc3ccc(N4CCC5(CCN(C)CC5)CC4)cc3)nc2n1-c1ccc(F)cn1 [Embodiment 28, 2-allyl-1-(5-fluoropyridin-2-yl)-6-((4-(9-methyl-3,9-diazaspiro[5.5]undecan-3-yl)phenyl)amino)-1H-pyrazolo[3,4-d]pyrimidin-3(2H)-one]	13.2 nM
C=CCn1c(=O)c2cnc(Nc3ccc(N4CCC5(CCN(C(=O)OC)CC5)CC4)cc3)nc2n1-c1cccc(C(C)(C)O)n1 [Embodiment 31, methyl-9-(4-((2-allyl-1-(6-(2-hydroxypropan-2-yl)pyridin-2-yl)-3-oxo-2,3-dihydro-1H-pyrazolo[3,4-d]pyrimidin-6-yl)amino)phenyl)-3,9-diazaspiro[5.5]undecan-3-ethyl carboxylate]	15 nM
C=CCn1c(=O)c2cnc(Nc3ccc(N4CCC5(CCN(C)CC5)CC4)c(F)c3)nc2n1-c1cccc(C(C)(C)O)n1 [Embodiment 34, 2-allyl-6((3-fluoro-4-(9-methyl-3,9-diazaspiro[5.5]undecan-3-yl)phenyl)amino)-1-(6-(2-hydroxypropan-2-yl)pyridin-2-yl)-1H-pyrazolo[3,4-d]pyrimidin-3(2H)-one]	120 nM
C=CCn1c(=O)c2cnc(Nc3ccc(N4CCC5(CCN(C)CC5)CC4)cc3C)nc2n1-c1cccc(C(C)(C)O)n1 [Embodiment 35, 2-allyl-1-(6-(2-hydroxypropan-2-yl)pyridin-2-yl)-6((2-methyl-4-(9-methyl-3,9-diazaspiro[5.5]undecan-3-yl)phenyl)amino)-1H-pyrazolo[3,4-d]pyrimidine-3(2H)-one]	241 nM
C=CCn1c(=O)c2cnc(Nc3ccc(N4CCC5(CCN(C)CC5)CC4)c(C)c3)nc2n1-c1cccc(C(C)(C)O)n1 [Embodiment 36, 2-allyl-1-(6-(2-hydroxypropan-2-yl)pyridin-2-yl)-6((3-methyl-4-(9-methyl-3,9-diazaspiro[5.5]undecan-3-yl)phenyl)amino)-1H-pyrazolo[3,4-d]pyrimidine-3(2H)-one]	57.1 nM
C=CCn1c(=O)c2cnc(Nc3ccc(N4CCC5(CCN(C)CC5)CC4)cc3OC)nc2n1-c1cccc(C(C)(C)O)n1 [Embodiment 37, 2-allyl-1-(6-(2-hydroxypropan-2-yl)pyridin-2-yl)-6((2-methoxy-4-(9-methyl-3,9-diazaspiro[5.5]undecan-3-yl)phenyl)amino)-1H-pyrazolo[3,4-d]pyrimidin-3(2H)-one]	328 nM
C=CCn1c(=O)c2cnc(Nc3ccc(N4CCC5(CCN(C)CC5)CC4)c(OC)c3)nc2n1-c1cccc(C(C)(C)O)n1 [Embodiment 38, 2-allyl-1-(6-(2-hdyroxypropan-2-yl)pyridin-2-yl)-6((3-methoxy-4-(9-methyl-3,9-diazaspiro[5.5]undecan-3-yl)phenyl)amino)-1H-pyrazolo[3,4-d]pyrimidine-3(2H)-one]	20.7 nM
C=CCn1c(=O)c2cnc(Nc3ccc(N4CCC5(CCN(C)CC5)CC4)cc3)nc2n1-c1cccc(C2(O)CCC2)n1 [Embodiment 40, 2-allyl-1-(6-(1-hydroxycyclobutyl)pyridin-2-yl)-6-((4-(9-methyl-3,9-diazaspiro[5.5]undecan-3-yl)phenyl)amino)-1H-pyrazolo[3,4-d]pyrimidin-3(2H)-one]	30.7 nM
C=CCn1c(=O)c2cnc(Nc3ccc(N4CCC5(CCN(C)CC5)CC4)cc3)nc2n1-c1cccc(C(C)(O)C(F)(F)F)n1 (centres unmarked) [Embodiment 41, 2-allyl-6-((4-(9-methyl-3,9-diazaspiro[5.5]undecan-3-yl)phenyl)amino)-1-(6-(1,1,1-trifluoro-2-hydroxypropan-2-yl)pyridin-2-yl)-1H-pyrazolo[3,4-d]pyrimidin-3(2H)-one]	13.1 nM
C=CCn1c(=O)c2cnc(Nc3ccc(N4CCC5(CCN(C)CC5)CC4)cc3)nc2n1-c1cccc(C2(O)COC2)n1 [Embodiment 42, 2-allyl-1-(6-(3-hydroxyoxetan-3-yl)pyridin-2-yl)-6-((4-(9-methyl-3,9-diazaspiro[5.5]undecan-3-yl)phenyl)amino)-1H-pyrazolo[3,4-d]pyrimidin-3(2H)-one]	17.4 nM
C=CCn1c(=O)c2cnc(Nc3ccc(N4CCC5(CCN(C)CC5)CC4)cc3)nc2n1-c1cccc(N2CCCC2=O)n1 [Embodiment 44]	12.6 nM
C=CCn1c(=O)c2cnc(Nc3ccc(N4CCC5(CCN(C)CC5)CC4)cc3)nc2n1-c1cccc(C2CC2)n1 [Embodiment 45, 2-allyl-1-(6-cyclopropylpyridin-2-yl)-6-((4-(9-methyl-3,9-diazaspiro[5.5]undecan-3-yl)phenyl)amino)-1H-pyrazolo[3,4-d]pyrimidin-3(2H)-one]	7.4 nM
C=CCn1c(=O)c2cnc(Nc3ccc(N4CCC5(CCN(C)CC5)CC4)cc3)nc2n1-c1cccc(C(F)(F)F)n1 [Embodiment 46, 2-allyl-6-((4-(9-methyl-3,9-diazaspiro[5.5]undecane-3-yl)phenyl)amino)-1-(6-(trifluoromethyl)pyridin-2-yl)-1H-pyrazolo[3,4-d]pyrimidine-3(2H)-one]	44.6 nM

Reference: patent publication US10954253B2, “1,2-dihydro-3H-pyrazolo[3,4-d]pyrimidin-3-one derivative as Wee1 inhibitor” (SHIJIAZHUANG SAGACITY NEW DRUG DEVELOPMENT CO., LTD., priority 2017, dated 2021)
